Measurements reported in patent publication US20090155387A1, “STABLE PHARMACEUTICAL COMPOSITION COMPRISING BETA-LACTAM ANTIBIOTIC AND ION-CHELATING AGENT” (priority 2006, published 2009).
Values belong to the molecule of their own block, whether it stands above or below them.

Assay: Amounts of β-lactam antibiotic, β-lactamase inhibitor and aminoglycoside antibiotic in solution over time (reverse-phase LC/HPLC)
Format: physicochemical
Protocol: The amounts of β-lactam antibiotics and β-lactamase inhibitor were determined using C18 reverse-phase LC and UV-VIS detector (Tianjin […] Co., Ltd., analysis method No. HM-K-03). The content of aminoglycoside antibiotics was measured using reverse-phase HPLC and evaporation-light-scattering detector (ELSD detector) (Tianjin […] Co., Ltd., analysis method No. HM-K-08). The amount of antibiotic component at each time point was expressed as a percentage with respect to the amount at the initial time. The relative amount of each antibiotic component in the composition at each time point was expressed as peak area ratio with respect to the corresponding peak area of an external standard.

[1] = in Example 8 solution from freeze-dried powder stored 7 days at 0° C., redissolved in injectable water, 0 h
[2] = in Example 8 solution from freeze-dried powder stored 7 days at 0° C., redissolved in injectable water, 1 h
[3] = in Example 8 solution from freeze-dried powder stored 7 days at 0° C., redissolved in injectable water, 2 h
[4] = in Example 8 solution from freeze-dried powder stored 7 days at 0° C., redissolved in injectable water, 4 h
[5] = in Example 8 solution from freeze-dried powder stored 7 days at 0° C., redissolved in injectable water, 6 h
[6] = in Example 8 solution from freeze-dried powder stored 7 days at 0° C., redissolved in injectable water, 8 h

- amount (percentage of initial amount) (in Example 19 solution, pH 6.75, room temperature, 0 h): 99.91%
- amount (percentage of initial amount) (in Example 19 solution, pH 6.75, room temperature, 1 h): 99.50%
- amount (percentage of initial amount) (in Example 19 solution, pH 6.75, room temperature, 2 h): 98.88%
- amount (percentage of initial amount) (in Example 19 solution, pH 6.75, room temperature, 4 h): 99.45%
- amount (percentage of initial amount) (in Example 19 solution, pH 6.75, room temperature, 6 h): 98.56%
- amount (percentage of initial amount) (in Example 19 solution, pH 6.75, room temperature, 8 h): 99.36%
- amount (percentage of initial amount) (in Example 20 solution (no EDTA), pH 6.75, room temperature, 0 h): 95.98%
- amount (percentage of initial amount) (in Example 20 solution (no EDTA), pH 6.75, room temperature, 1 h): 91.49%
- amount (percentage of initial amount) (in Example 20 solution (no EDTA), pH 6.75, room temperature, 2 h): 85.05%
- amount (percentage of initial amount) (in Example 20 solution (no EDTA), pH 6.75, room temperature, 4 h): 91.00%
- amount (percentage of initial amount) (in Example 20 solution (no EDTA), pH 6.75, room temperature, 6 h): 81.93%
- amount (percentage of initial amount) (in Example 20 solution (no EDTA), pH 6.75, room temperature, 8 h): 89.98%
Molecule: NCC[C@H](O)C(=O)N[C@@H]1C[C@H](N)[C@@H](O[C@H]2O[C@H](CN)[C@@H](O)[C@H](O)[C@H]2O)[C@H](O)[C@H]1O[C@H]1O[C@H](CO)[C@@H](O)[C@H](N)[C@H]1O [Amikacin]

- amount (percentage of initial amount) (in Example 7 solution, pH 6.75, room temperature, 0 h): 97.01%
- amount (percentage of initial amount) (in Example 7 solution, pH 6.75, room temperature, 1 h): 100.3%
- amount (percentage of initial amount) (in Example 7 solution, pH 6.75, room temperature, 2 h): 96.40%
- amount (percentage of initial amount) (in Example 7 solution, pH 6.75, room temperature, 4 h): 99.01%
- amount (percentage of initial amount) (in Example 7 solution, pH 6.75, room temperature, 6 h): 98.91%
- amount (percentage of initial amount) (in Example 7 solution, pH 6.75, room temperature, 8 h): 99.53%
- amount (percentage of initial amount) [1]: 98.75%
- amount (percentage of initial amount) [2]: 100.1%
- amount (percentage of initial amount) [3]: 99.97%
- amount (percentage of initial amount) [4]: 98.87%
- amount (percentage of initial amount) [5]: 99.27%
- amount (percentage of initial amount) [6]: 100.5%
- amount (percentage of initial amount) (in Example 9 solution from freeze-dried powder stored 7 days at 0° C., redissolved in injectable water, 0 h): 92.24%
- amount (percentage of initial amount) (in Example 9 solution from freeze-dried powder stored 7 days at 0° C., redissolved in injectable water, 1 h): 96.28%
- amount (percentage of initial amount) (in Example 9 solution from freeze-dried powder stored 7 days at 0° C., redissolved in injectable water, 2 h): 94.97%
- amount (percentage of initial amount) (in Example 9 solution from freeze-dried powder stored 7 days at 0° C., redissolved in injectable water, 4 h): 94.20%
- amount (percentage of initial amount) (in Example 9 solution from freeze-dried powder stored 7 days at 0° C., redissolved in injectable water, 6 h): 97.91%
- amount (percentage of initial amount) (in Example 9 solution from freeze-dried powder stored 7 days at 0° C., redissolved in injectable water, 8 h): 93.23%
- amount (percentage of initial amount) (in Example 24 solution, pH 6.75, room temperature, 0 h): 110.2%
- amount (percentage of initial amount) (in Example 24 solution, pH 6.75, room temperature, 1 h): 117.6%
- amount (percentage of initial amount) (in Example 24 solution, pH 6.75, room temperature, 2 h): 119.4%
- amount (percentage of initial amount) (in Example 24 solution, pH 6.75, room temperature, 4 h): 111.5%
- amount (percentage of initial amount) (in Example 24 solution, pH 6.75, room temperature, 6 h): 113.4%
- amount (percentage of initial amount) (in Example 24 solution, pH 6.75, room temperature, 8 h): 120.0%
Molecule: CO/N=C(\C(=O)N[C@@H]1C(=O)N2C(C(=O)O)=C(CSc3nc(=O)c(=O)[nH]n3C)CS[C@H]12)c1csc(N)n1 [Ceftriaxone sodium]

- amount (percentage of initial amount) (in Example 10 solution, pH 6.5, room temperature, 0 h): 92.06%
- amount (percentage of initial amount) (in Example 10 solution, pH 6.5, room temperature, 1 h): 99.84%
- amount (percentage of initial amount) (in Example 10 solution, pH 6.5, room temperature, 2 h): 99.73%
- amount (percentage of initial amount) (in Example 10 solution, pH 6.5, room temperature, 4 h): 98.64%
- amount (percentage of initial amount) (in Example 10 solution, pH 6.5, room temperature, 6 h): 94.27%
- amount (percentage of initial amount) (in Example 10 solution, pH 6.5, room temperature, 8 h): 96.48%
- amount (percentage of initial amount) (in Example 25 solution, pH 6.75, room temperature, 0 h): 100.9%
- amount (percentage of initial amount) (in Example 25 solution, pH 6.75, room temperature, 1 h): 104.6%
- amount (percentage of initial amount) (in Example 25 solution, pH 6.75, room temperature, 2 h): 100.1%
- amount (percentage of initial amount) (in Example 25 solution, pH 6.75, room temperature, 4 h): 81.34%
- amount (percentage of initial amount) (in Example 25 solution, pH 6.75, room temperature, 6 h): 103.7%
- amount (percentage of initial amount) (in Example 25 solution, pH 6.75, room temperature, 8 h): 102.2%
Molecule: CO/N=C(\C(=O)N[C@@H]1C(=O)N2C(C(=O)O)=C(CSc3nc(C)c(CC(=O)O)s3)CS[C@H]12)c1csc(N)n1 [Cefodizime sodium]

Continued, molecule first:

Molecule: C[C@]1(Cn2ccnn2)[C@H](C(=O)O)N2C(=O)C[C@H]2S1(=O)=O [Tazobactam sodium]
- amount (percentage of initial amount) [1]: 102.2%
- amount (percentage of initial amount) [2]: 97.53%
- amount (percentage of initial amount) [3]: 94.16%
- amount (percentage of initial amount) [4]: 94.58%
- amount (percentage of initial amount) [5]: 95.45%
- amount (percentage of initial amount) [6]: 94.44%
- amount (percentage of initial amount) (in Example 16 solution, pH 6.5, room temperature, 0 h): 98.77%
- amount (percentage of initial amount) (in Example 16 solution, pH 6.5, room temperature, 1 h): 108.2%
- amount (percentage of initial amount) (in Example 16 solution, pH 6.5, room temperature, 2 h): 110.8%
- amount (percentage of initial amount) (in Example 16 solution, pH 6.5, room temperature, 4 h): 97.39%
- amount (percentage of initial amount) (in Example 16 solution, pH 6.5, room temperature, 6 h): 106.3%
- amount (percentage of initial amount) (in Example 16 solution, pH 6.5, room temperature, 8 h): 106.3%
- amount (percentage of initial amount) (in Example 21 solution, pH 6.75, room temperature (22° C.), 0 h): 93.36%
- amount (percentage of initial amount) (in Example 21 solution, pH 6.75, room temperature (22° C.), 1 h): 104.8%
- amount (percentage of initial amount) (in Example 21 solution, pH 6.75, room temperature (22° C.), 2 h): 100.0%
- amount (percentage of initial amount) (in Example 21 solution, pH 6.75, room temperature (22° C.), 4 h): 96.58%
- amount (percentage of initial amount) (in Example 21 solution, pH 6.75, room temperature (22° C.), 6 h): 106.1%
- amount (percentage of initial amount) (in Example 21 solution, pH 6.75, room temperature (22° C.), 8 h): 107.1%

Molecule: Gentamicin
- amount (percentage of initial amount) (in Example 5 solution, pH 6.75, room temperature, 0 h): 101.7%
- amount (percentage of initial amount) (in Example 5 solution, pH 6.75, room temperature, 1 h): 104.2%
- amount (percentage of initial amount) (in Example 5 solution, pH 6.75, room temperature, 2 h): 96.1%
- amount (percentage of initial amount) (in Example 5 solution, pH 6.75, room temperature, 4 h): 100.1%
